Laboratory results: ChEMBL document CHEMBL5726876, “NHE3-binding compounds and methods for inhibiting phosphate transport” (2019)
Several values for one entry are separate records, joined by “and”; a condition that tells them apart may be missing. Equal entries are not always repeated.

Assays:
[1] = Cell-based activity under Prompt Conditions: Cell-based activity under Prompt Conditions. Rat or human NHE3-mediated Na+-dependent H+ antiport was measured using a modification of the pH sensitive dye method originally reported by Paradiso (PNAS USA. 81:7436-7440, 1984). Opossum kidney (OK) cells were obtained from the ATCC and propagated per their instructions. The rat NHE3 gene (GenBank M85300) or the human NHE3 gene (GenBank NM_004174.1) was introduced into OK cells via electroporation, and cells were seeded into 96 well plates and grown overnight. Medium was aspirated from the wells, cells were washed twice with NaCl-HEPES buffer (100 mM NaCl, 50 mM HEPES, 10 mM glucose, 5 mM KCl, 2 mM CaCl2, 1 mM MgCl2, pH 7.4), then incubated for 30 min at room temperature with NH4Cl-HEPES buffer (20 mM NH4Cl, 80 mM NaCl, 50 mM HEPES, 5 mM KCl, 2 mM CaCl2, 1 mM MgCl2, pH 7.4) containing 5 μM bis(acetoxymethyl) 3,3′-(3′,6′-bis(acetoxymethoxy)-5-((acetoxymethoxy)carbonyl)-3-oxo-3H-spiro[isobenzofuran-1,9′-xanthene]-2′,7′-diyl)dipropanoate (BCECF-AM).Cells were washed twice with Ammonium free, Na+-free HEPES (100 mM choline, 50 mM HEPES, 10 mM glucose, 5 mM KCl, 2 mM CaCl2, 1 mM MgCl2, pH 7.4) and incubated in the same buffer for 10 minutes at room temperature to lower intracellular pH. […] Initial rates were plotted as the average 2 or more replicates, and pIC50 values were estimated using GraphPad Prism.
[2] = Cell-Based Assay of NHE3 Activity under Persistent Conditions: The ability of compounds to inhibit Rat NHE3-mediated Na+-dependent H+ antiport after application and washout was measured using a modification of the pH sensitive dye method described above. Opossum kidney (OK) cells were obtained from the ATCC and propagated per their instructions. The rat NHE3 gene was introduced into OK cells via electroporation, and cells were seeded into 96 well plates and grown overnight. Medium was aspirated from the wells, cells were washed twice with NaCl-HEPES buffer (100 mM NaCl, 50 mM HEPES, 10 mM glucose, 5 mM KCl, 2 mM CaCl2, 1 mM MgCl2, pH 7.4), then overlayed with NaCl-HEPES buffer containing 0-30 μM test compound.After a 60 min incubation, the test drug containing buffer was aspirated from the cells, cells were washed twice with NaCl-HEPES buffer without drug, then incubated for 30 min at room temperature with NH4Cl-HEPES buffer (20 mM NH4Cl, 80 mM NaCl, 50 mM HEPES, 5 mM KCl, 2 mM CaCl2, 1 mM MgCl2, pH 7.4) containing 5 uM BCECF-AM. Cells were washed twice with Ammonium free, Natfree HEPES (100 mM choline, 50 mM HEPES, 10 mM glucose, 5 mM KCl, 2 mM CaCl2, 1 mM MgCl2, pH 7.4) and incubated in the same buffer for 10 minutes at room temperature to lower intracellular pH. […] Initial rates were plotted as the average 2 or more replicates, and pIC50 values w
[3] = Cell-based assay of NaP2b activity: The rate of phosphate (Pi) uptake into cells was measured using a modification of a literature method (see Mohrmann et al. Am. J. Phys. 250(3 pt 1):G323-30, 1986). Briefly, HEK293 cells were transiently transfected with an expression clone encoding either rat or human NaP2b. The next day, transfected cells were treated with a pharmacological agent to minimize endogenous PiT-mediated phosphate transport activity, such that the only remaining sodium-dependent phosphate transport activity is that which was bestowed by introduction of the NaP2b gene. Cells were incubated with radioactive inorganic phosphate in the presence or absence of varying concentrations of test compound. After a short time, cells were washed, harvested, and the amount of hot phosphate taken up in the cells determined by liquid scintillation counting.HEK293 cells were obtained from the American Type Culture collection and propagated per their instructions. Expression clones for rat and human NaP2b (SLC34A2) were obtained from Open Biosystems (Catalog numbers MRN1768-9510282, and MHS1010-99823026, respectively). There are two putative splice variants of human NaP2b, designated as isoform a and isoform b (NCBI Reference Sequences: NP_006415.2 and NP_ 001171470.1, respectively). […] […]

| Structure (SMILES) | IC50 [1] | IC50 [2] [nM] | IC50 [3] [nM] |
| --- | --- | --- | --- |
| CN1Cc2c(Cl)cc(Cl)cc2[C@@H](c2cccc(S(=O)(=O)NCCOCCOCCNC(=O)NCCCCNC(=O)NCCOCCOCCNS(=O)(=O)c3cccc([C@H]4CN(C)Cc5c(Cl)cc(Cl)cc54)c3)c2)C1 | < 10000 nM and 50.1 nM | 2510 |  |
| CN1Cc2c(Cl)cc(Cl)cc2[C@H](c2cccc(S(=O)(=O)NCCOCCOCCNC(=O)NCCCCNC(=O)NCCOCCOCCNS(=O)(=O)c3cccc([C@@H]4CN(C)Cc5c(Cl)cc(Cl)cc54)c3)c2)C1 [TENAPANOR] | 9.33 nM and 10 nM | 3.98 | < 31600 |
| CN1Cc2c(Cl)cc(Cl)cc2[C@H](c2cccc(S(=O)(=O)NCCOCCOCCNC(=O)NCCC[N+](C)(CCCNC(=O)NCCOCCOCCNS(=O)(=O)c3cccc([C@@H]4CN(C)Cc5c(Cl)cc(Cl)cc54)c3)CCCNC(=O)NCCOCCOCCNS(=O)(=O)c3cccc([C@@H]4CN(C)Cc5c(Cl)cc(Cl)cc54)c3)c2)C1 | 39.8 nM |  |  |
